From patent US8541363B2, “Pyruvamide compounds as inhibitors of dust mite group 1 peptidase allergen and their use” (St George's Hosptial Medical School, priority 2010, dated 2013)
Read-outs that look alike come from different tables or passages of the source.

Target: Der p 1 (Dermatophagoides pteronyssinus (European house dust mite), UniProt P08176)
Assay: Der p 1 enzyme activity assay (FRET fluorogenic substrate)
Format: biochemical
Procedure: The fluorogenic substrate used for measuring Der p 1 proteolytic activity was 2-aminobenzoylvalylalanylnorleucylseryl-(3-nitro)tyrosinyl aspartamide.
Test compounds were dissolved in dry DMSO and maintained at 4° C. as stock solutions until being diluted for use in screening assays. Final concentration of DMSO in all enzymatic assays was 0.5% v/v.
Reaction mixtures were assembled in a 96-well plate format (Perkin Elmer Optiplate 96F, Perkin Elmer LAS, Seer Green, Buckinghamshire, UK) using a Perkin Elmer MultiPROBE II Plus HTS EX robot with Gripper attachment. […] Dithiothreitol (DTT, 10 μL/well, 1 mM final concentration) was then added together with 10 μL of Der p 1 dissolved at 2.5 μg/mL in reaction buffer supplemented with 1 mM DTT. […] The plate was immediately transferred to a fluorescence plate reader (Perkin Elmer Fusion Alpha-FP or Perkin Elmer Envision) equipped with a temperature-controlled carrier set at 30° C. and the reaction followed by excitation/emission at 330/420 nm.
Inhibitory activity was analysed from progress curves of reactions in the presence of a range of inhibitor concentrations.
Initial velocity in each well was converted to fractional activity by Equation 1: Fractional activity=(Initial rate at inhibitor concentration[X]/Initial rate at inhibitor concentration zero)*100 Equation 1:
Then, IC50 was determined by fitting the data of fractional activity and inhibitor concentration to a 4-parameter logistic curve, using Equation 2: V=Vmin+[Vmax−Vmin]/[1+(X/IC50)Hillslope] […] Biological Data—Der p 1 Enzyme Assay

[1] = threshold stated in text, read-out: Der p 1 IC50

Sequence of Der p 1 (P08176 99-320): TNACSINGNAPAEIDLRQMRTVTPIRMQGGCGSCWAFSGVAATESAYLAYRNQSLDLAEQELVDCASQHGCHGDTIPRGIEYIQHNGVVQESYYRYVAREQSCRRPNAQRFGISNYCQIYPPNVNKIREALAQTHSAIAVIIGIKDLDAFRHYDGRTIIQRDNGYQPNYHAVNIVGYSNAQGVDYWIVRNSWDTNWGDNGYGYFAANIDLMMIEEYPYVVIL

| IC50 [1] | SMILES | IC50 (Der p 1 IC50) |
| --- | --- | --- |
| < 200 nM | CC(C)[C@H](NC(=O)[C@H](C)NC(=O)[C@H](Cc1ccccc1)NC(=O)c1ccc2ncsc2c1)C(=O)C(=O)NCc1ccccc1 [PVA-051] |  |
| < 200 nM | CC(C)[C@H](NC(=O)[C@H](C)NC(=O)[C@H](Cc1ccccc1)NC(=O)c1ccccc1)C(=O)C(=O)NC1Cc2ccccc2C1 [PVA-103] |  |
| < 200 nM | CC(C)[C@H](NC(=O)[C@H](C)NC(=O)[C@@H](Cc1ccc(F)c(F)c1)NC(=O)c1ccccc1)C(=O)C(=O)NC1CCCCC1 [PVA-028] |  |
| < 20 nM | CC(C)[C@H](NC(=O)[C@H](C)NC(=O)[C@H](Cc1ccccc1)NC(=O)c1ccccc1)C(=O)C(=O)NCc1ccccc1 [PVA-009] |  |
| < 20 nM | CC(C)[C@H](NC(=O)[C@H](C)NC(=O)[C@@H](NC(=O)c1ccccc1)C(C)(C)C)C(=O)C(=O)NCc1cn[nH]c1 [PVA-158] |  |
| < 200 nM | CC(C)[C@H](NC(=O)[C@H](C)NC(=O)[C@@H](Cc1ccccc1F)NC(=O)c1ccccc1)C(=O)C(=O)NC1CCCCC1 [PVA-030] |  |
| < 2000 nM | CCCC[C@H](NC(=O)[C@H](C)NC(=O)[C@@H](Cc1ccccc1)NC(=O)c1ccc(N2CCN(C)CC2)cc1)C(=O)C(=O)NC1CCCCC1 [PVA-043] |  |
| < 20 nM | CC(C)[C@H](NC(=O)[C@H](C)NC(=O)[C@@H](NC(=O)c1ccccc1)C(C)(C)c1ccccc1)C(=O)C(N)=O [PVA-143] |  |
| < 200 nM | CC(C)[C@H](NC(=O)[C@H](C)NC(=O)C1Cc2ccccc2N1C(=O)c1ccccc1)C(=O)C(=O)NCc1ccccc1 (stereo partly drawn) [PVA-123] |  |
| < 200 nM | CC(C)[C@H](NC(=O)[C@H](C)NC(=O)[C@H](Cc1ccccc1)NC(=O)c1ccncc1)C(=O)C(=O)NCc1cccc(S(N)(=O)=O)c1 [PVA-171] |  |
| < 2000 nM | CC(C)[C@H](NC(=O)[C@H](C)NC(=O)[C@H](NC(=O)c1ccccc1)C1Cc2ccccc2C1)C(=O)C(=O)NC1CCCCC1 [PVA-029] |  |
| < 200 nM | CC(C)[C@H](NC(=O)[C@H](C)NC(=O)[C@@H](NC(=O)c1ccccc1Oc1ccccc1)C(C)(C)C)C(=O)C(=O)NCc1ccccc1 [PVA-106] |  |
| < 20 nM | CC(C)[C@H](NC(=O)[C@H](C)NC(=O)[C@@H](NC(=O)c1ccccc1)C(C)(C)C)C(=O)C(=O)NCc1ccc(=O)[nH]c1 [PVA-134] |  |
| < 200 nM | CC(C)[C@H](NC(=O)[C@H](C)NC(=O)[C@@H](NC(=O)c1ccccc1)C(C)(C)c1ccccc1)C(=O)C(=O)NCc1ccccc1 [PVA-121] |  |
| < 200 nM | CC(C)[C@H](NC(=O)[C@H](C)NC(=O)[C@H](Cc1ccccc1)NC(=O)c1ccccc1)C(=O)C(=O)NCc1ccc2c(c1)OCO2 [PVA-041] |  |
| < 20 nM | CC(C)[C@H](NC(=O)[C@H](C)NC(=O)[C@@H](NC(=O)C1CC[N+](C)(C)CC1)C(C)(C)C)C(=O)C(=O)NC1CCCCC1 [PVA-153] |  |
| < 200 nM | CC(C)[C@H](NC(=O)[C@H](C)NC(=O)[C@H](Cc1ccccc1C(F)(F)F)NC(=O)c1ccncc1)C(=O)C(=O)NCc1ccccc1 [PVA-152] |  |
| < 200 nM | CC(C)[C@H](NC(=O)[C@H](C)NC(=O)[C@@H]1Cc2ccccc2CN1C(=O)c1ccccc1)C(=O)C(=O)NC1CCCCC1 [PVA-100] |  |
| < 200 nM | CC(C)[C@H](NC(=O)[C@H](C)NC(=O)[C@H](Cc1ccccc1)NC(=O)c1cccc(OCCN2CCCC2)c1)C(=O)C(=O)NC1CCCCC1 [PVA-065] |  |
| < 20 nM | CC(C)[C@H](NC(=O)[C@H](C)NC(=O)[C@@H](NC(=O)c1ccnc2ccccc12)C(C)(C)C)C(=O)C(=O)NC1CCCCC1 [PVA-071] |  |
| < 200 nM | CC(C)C(NC(=O)[C@H](C)NC(=O)[C@H](Cc1ccccc1)NC(=O)c1ccccc1)C(=O)C(=O)NCc1ccncc1 (stereo partly drawn) [PVA-022] |  |
| < 200 nM | Cc1cc(CNC(=O)C(=O)[C@@H](NC(=O)[C@H](C)NC(=O)[C@@H](NC(=O)c2ccccc2)C(C)(C)C)C(C)C)no1 [PVA-126] |  |

The remaining lines, values behind:

| SMILES | IC50 [1] | IC50 (Der p 1 IC50) |
| --- | --- | --- |
| CC(C)[C@H](NC(=O)[C@H](C)NC(=O)[C@@H](NC(=O)c1cccc(N2CCN(C)CC2)c1)C(C)(C)C)C(=O)C(=O)NCc1ccccc1 [PVA-173] | < 200 nM |  |
| CC(C)C(NC(=O)[C@H](C)NC(=O)[C@@H](Cc1ccccc1)NC(=O)c1ccncc1)C(=O)C(=O)NC1CCCCC1 (stereo in doubt) [PVA-020] | < 200 nM |  |
| CC(C)[C@H](NC(=O)[C@H](C)NC(=O)[C@H](Cc1ccccc1)NC(=O)c1ccccc1)C(=O)C(=O)NCC(=O)N1CCC(N(C)C)CC1 [PVA-093] | < 20 nM |  |
| Cc1cc(CNC(=O)C(=O)[C@@H](NC(=O)[C@H](C)NC(=O)[C@@H](NC(=O)c2ccccc2)C(C)(C)C)C(C)C)n(C)n1 [PVA-168] | < 200 nM |  |
| CCC[C@H](NC(=O)[C@H](Cc1ccccc1)NC(=O)c1ccccc1)C(=O)N[C@H](C(=O)C(=O)NC1CCCCC1)C(C)C [PVA-088] | < 200 nM |  |
| CC(C)[C@H](NC(=O)[C@H](C)NC(=O)[C@@H](Cc1ccc(F)cc1)NC(=O)c1ccccc1)C(=O)C(=O)NC1CCCCC1 [PVA-027] | < 200 nM |  |
| CC(C)[C@H](NC(=O)[C@H](C)NC(=O)[C@H](Cc1ccccc1)NC(=O)c1cccc2ccccc12)C(=O)C(=O)NCC(=O)N1CCN(C)CC1 [PVA-095] | < 200 nM |  |
| CNS(=O)(=O)c1ccc(CNC(=O)C(=O)[C@@H](NC(=O)[C@H](C)NC(=O)[C@@H](N2Cc3ccccc3C2=O)C(C)(C)C)C(C)C)cc1 [PVA-208] |  | < 20 nM |
| CC(C)[C@H](NC(=O)[C@H](C)NC(=O)[C@@H](NC(=O)c1ccccc1)C(C)(C)C)C(=O)C(=O)N[C@H](C)C(=O)N1CCN(C)CC1 [PVA-125] | < 200 nM |  |
| CC(C)[C@H](NC(=O)[C@H](C)NC(=O)[C@@H](NC(=O)c1ccccc1)C(C)(C)C)C(=O)C(=O)NCC(=O)N1CCC(N(C)C)C1 (stereo partly drawn) [PVA-105] | < 20 nM |  |
| COc1ccc(CNC(=O)C(=O)[C@@H](NC(=O)[C@H](C)NC(=O)[C@H](Cc2ccccc2)NC(=O)c2ccccc2)C(C)C)cc1 [PVA-042] | < 20 nM |  |
| CC(C)[C@H](NC(=O)[C@H](C)NC(=O)[C@H](Cc1ccccc1)NC(=O)c1ccccc1)C(=O)C(=O)NC1CCN(C)CC1 [PVA-083] | < 200 nM |  |
| CC(C)[C@@H](NC(=O)[C@H](C)NC(=O)[C@@H](NC(=O)c1ccncc1)C(C)(C)C)C(=O)C(=O)NC1CCCCC1 [PVA-086] |  | < 200 nM |
| CC(C)[C@H](NC(=O)[C@H](C)NC(=O)[C@H](Cc1ccccc1)NC(=O)c1ccncc1)C(=O)C(=O)NCc1cccc(C(N)=O)c1 [PVA-169] | < 20 nM |  |
| CC(C)[C@H](NC(=O)[C@H](C)NC(=O)[C@@H](NC(=O)c1ccccc1)C(C)(C)C)C(=O)C(=O)NCC(=O)N1CCOCC1 [PVA-079] | < 20 nM |  |
| CC(C)[C@H](NC(=O)[C@H](C)NC(=O)[C@@H](NC(=O)c1ccccc1N1CCN(C)CC1)C(C)(C)C)C(=O)C(=O)NCc1ccccc1 [PVA-201] | < 200 nM |  |
| CC(C)[C@H](NC(=O)[C@H](C)NC(=O)[C@@H](NC(=O)c1ccccc1)C(C)(C)C)C(=O)C(=O)NC1CN2CCC1CC2 (stereo partly drawn) [PVA-119] |  | < 200 nM |
| CC(C)[C@H](NC(=O)[C@H](C)NC(=O)[C@@H](NC(=O)c1ccc(=O)[nH]c1)C(C)(C)C)C(=O)C(=O)NC1CCCCC1 [PVA-084] | < 200 nM |  |
| CC(C)[C@H](NC(=O)[C@H](C)NC(=O)[C@@H](NC(=O)c1ccccc1)C12CC3CC(CC(C3)C1)C2)C(=O)C(=O)NCc1ccc(S(N)(=O)=O)cc1 [PVA-214] | < 20 nM |  |
| COCCNC(=O)C(=O)[C@@H](NC(=O)[C@H](C)NC(=O)[C@H](Cc1ccccc1)NC(=O)c1ccccc1)C(C)C [PVA-046] | < 200 nM |  |
